Assay results taken from patent US10155948B2, “Pharmaceutical composition for preventing or treating diabetic complications and screening method for preventive or therapeutic agent for diabetic complications” (KANGWON NATIONAL UNIVERSITY UNIVERSITY-INDUSTRY COOPERATION …, priority 2016, dated 2018).

Assays:
HUVECs = assay: VEGF-induced ROS generation in HUVECs; type: cell-based, human
Method: Both respectively were grown on 2% gelatin-coated plates in a M199 medium supplemented with 20% fetal bovine serum (FBS), 3 ng/ml basic fibroblastic growth factor, 5 units/ml heparin, 100 units/ml penicillin, and 100 μg/ml streptomycin. For experiments, cells were incubated for 6 hrs in a low-serum medium supplemented with 1% FBS and antibiotics.
Intracellular ROS generation was determined using 2′,7′-dichlorodihydrofluorescein diacetate (H2DCFDA, Molecular Probes, Eugene, Oreg.) staining as previously described. Cells were pretreated with inhibitors for 30 min and co-incubated with 10 ng/ml of VEGF and 10 μM H2DCFDA in low-serum media (phenol red-free) for 10 min. Labeled cells were immediately analyzed using confocal microscopy (Fluoview-300, Olympus). Single-cell fluorescence intensities were determined for 10 randomly selected cells per test. Intracellular ROS levels were determined by comparing average fluorescence intensities of treated cells with those of control cells (expressed as multiples thereof).

TGase2 = target: T1, TGase2 (Homo sapiens, UniProt P21980); conditions: protein chip-based, dose-dependent
T1 sequence (P21980 1-687): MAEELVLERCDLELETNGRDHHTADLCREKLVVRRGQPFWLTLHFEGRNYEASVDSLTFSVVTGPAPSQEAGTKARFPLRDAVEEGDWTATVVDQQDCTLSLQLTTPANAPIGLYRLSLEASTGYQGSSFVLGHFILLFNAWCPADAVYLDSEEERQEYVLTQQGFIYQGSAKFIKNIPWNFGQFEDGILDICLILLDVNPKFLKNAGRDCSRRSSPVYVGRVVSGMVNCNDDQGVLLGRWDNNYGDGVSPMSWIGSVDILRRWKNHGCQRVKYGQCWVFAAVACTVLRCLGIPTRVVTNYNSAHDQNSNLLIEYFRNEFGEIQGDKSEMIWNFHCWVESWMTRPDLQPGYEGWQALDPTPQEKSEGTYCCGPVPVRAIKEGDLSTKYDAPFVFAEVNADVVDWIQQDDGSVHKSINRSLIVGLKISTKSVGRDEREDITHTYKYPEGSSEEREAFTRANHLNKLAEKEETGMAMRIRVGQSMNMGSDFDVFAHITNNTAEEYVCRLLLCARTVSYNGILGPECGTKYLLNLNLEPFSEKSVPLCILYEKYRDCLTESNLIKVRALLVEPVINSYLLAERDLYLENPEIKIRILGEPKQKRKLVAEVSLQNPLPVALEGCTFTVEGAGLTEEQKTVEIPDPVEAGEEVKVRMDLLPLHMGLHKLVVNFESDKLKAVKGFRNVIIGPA

HRECs = assay: In-vitro endothelial cell monolayer permeability assay (FITC-dextran, Transwell); type: cell-based, human; conditions: 50 μM cystamine, 20 μM MDC or 100 nM dasatinib 30 min, 10 ng/ml VEGF 90 min, p<0.01
Method: In-vitro permeability assay was performed as previously described. HRECs were grown on gelatin-coated inserts (0.4 μm polycarbonate membrane) of Transwell® Permeable Supports (Costar, Corning, N.Y., USA) up to confluence. Approximately 1.0×10^5 cells in 0.5 ml of culture medium were seeded on the upper side of the membrane while 1 ml of culture medium was added to the lower compartment. […] The amount of FITC-dextran that diffused through the endothelial monolayer into the lower chamber was measured using a microplate spectrofluorometer (Molecular Devices, Sunnyvale, Calif., USA).
(A-C) HRECs were preincubated with 50 μM cystamine (Cys) and 20 μM MDC for 30 min and treated with 10 ng/ml VEGF. […] (C) Adherens junctions were quantitatively analyzed using the peak fluorescence intensities of the histograms at the single-cell level. The results are expressed as mean±SD from three independent trials. […] The amount of FITC-dextran that diffused to the lower chamber was measured by a microplate spectrofluorometer (n=3) (**p<0.01).
(A) β-catenin was visualized by confocal microscopy. […] (B) cSrc phosphorylation at Tyr^416 was analyzed by Western blot. […] Results are expressed as mean±SD from three independent experiments (**p<0.01, ***p<0.001).

c-Src = c-Src phosphorylation (Tyr416) by Western blot in HRECs; type: cell-based, human; conditions: 50 μM cystamine or 100 nM dasatinib 30 min, 10 ng/ml VEGF 15 min
Method: Cells were incubated with an ice-cold lysis buffer containing 50 mM Tris-HCl (pH 7.5), 1% Triton X-100, 150 mM NaCl, 1 mM EDTA, 0.1 mM phenylmethylsulfonyl fluoride (PMSF), 10 μg/ml aprotinin, and 10 μg/ml leupeptin for 30 min. Cell lysates were separated by SDS-PAGE and transferred to polyvinylidene fluoride membranes. The membranes were blocked with 5% skim milk in TBS with 0.1% Tween for 1 hr at room temperature (RT). […] Protein bands were visualized using a chemiluminescent substrate (Pierce, Rockford, Ill.).

β-catenin = assay: Visualization of β-catenin in HRECs; type: cell-based, human; conditions: 50 μM cystamine or 100 nM dasatinib 30 min, 10 ng/ml VEGF 90 min
Method: For visualization of β-catenin, cells were preincubated with inhibitors for 30 min and treated with 10 ng/ml VEGF for 90 min, fixed with 3.7% formaldehyde, and permeabilized with 0.2% Triton X-100. Cells were incubated overnight with a monoclonal anti-3-catenin antibody (1:200, Santa Cruz Biotechnology) at 4° C. Cells were then probed with an FITC-conjugated goat anti-mouse antibody (1:200, Sigma) and visualized using confocal microscopy. Images for making galleries were cropped to a smaller size using Microsoft PowerPoint 2010 software.
(A) β-catenin was visualized by confocal microscopy. Scale bar, 30 μm. (B) cSrc phosphorylation at Tyr^416 was analyzed by Western blot. (C) In-vitro endothelial cell monolayer permeability assay. Results are expressed as mean±SD from three independent experiments (**p<0.01, ***p<0.001).

SMILES	VEGF-enhanced ROS generation (HUVECs)	TGase2 activity (TGase2)	VEGF-increased in-vitro endothelial permeability (HRECs)	VEGF-induced c-Src phosphorylation (Tyr416) (c-Src)	VEGF-induced β-catenin breakdown (β-catenin)
NCCS [cysteamine]	inhibited	inhibited			
NCCc1ccc(O)c(O)c1 [dopamine]	inhibited	inhibited			
CN(C)c1cccc2c(S(=O)(=O)NCCCCCN)cccc12 [MDC, monodansylcadaverine]			inhibited		
NCCSSCCN [cystamine]			inhibited	prevented	inhibited
